Biological target: T1, ΔF508-CFTR (Homo sapiens, UniProt P13569, DEL508-508)
T1 construct: expressed in transfected cells
Test: Membrane potential optical assay for ΔF508-CFTR correction (single-addition HTS format)
Type: cell-based
Conditions: NIH3T3 mouse fibroblasts stably expressing ΔF508-CFTR; 16-24 hrs with compound; activation with 10 μM forskolin and 20 μM genistein; read-out: BinnedMaxEfficacy (PercentActivity)
From the text: Membrane potential optical methods for assaying ΔF508-CFTR modulation properties of compounds.
The assay utilizes fluorescent voltage sensing dyes to measure changes in membrane potential using a fluorescent plate reader (e.g., FLIPR III, Molecular Devices, Inc.) as a readout for increase in functional ΔF508-CFTR in NIH 3T3 cells. The driving force for the response is the creation of a chloride ion gradient in conjunction with channel activation by a single liquid addition step after the cells have previously been treated with compounds and subsequently loaded with a voltage sensing dye.
To identify small molecules that correct the trafficking defect associated with ΔF508-CFTR; a single-addition HTS assay format was developed. Assay Plates containing cells are incubated for ˜2-4 hours in tissue culture incubator at 37° C., 5% CO2, 90% humidity. Cells are then ready for compound exposure after adhering to the bottom of the assay plates.
The cells were incubated in serum-free medium for 16-24 hrs in tissue culture incubator at 37° C., 5% CO2, 90% humidity in the presence or absence (negative control) of test compound. The cells were subsequently rinsed 3× with Krebs Ringers solution and loaded with a voltage sensing redistribution dye. To activate ΔF508-CFTR, 10 μM forskolin and the CFTR potentiator, genistein (20 μM), were added along with Cl^−-free medium to each well. The addition of Cl^−-free medium promoted Cl^− efflux in response to ΔF508-CFTR activation and the resulting membrane depolarization was optically monitored using voltage sensor dyes.
Bath Solution #1: (in mM) NaCl 160, KCl 4.5, CaCl2 2, MgCl2 1, HEPES 10, pH 7.4 with NaOH.
Chloride-free bath solution: Chloride salts in Bath Solution #1 are substituted with gluconate salts.
NIH3T3 mouse fibroblasts stably expressing ΔF508-CFTR are used for optical measurements of membrane potential. The cells are maintained at 37° C. in 5% CO2 and 90% humidity in Dulbecco's modified Eagle's medium supplemented with 2 mM glutamine, 10% fetal bovine serum, 1×NEAA, β-ME, 1× pen/strep, and 25 mM HEPES in 175 cm^2 culture flasks. For all optical assays, the cells were seeded at ˜20,000/well in 384-well matrigel-coated plates and cultured for 2 hrs at 37° C. before culturing at 27° C. for 24 hrs. for the potentiator assay. For the correction assays, the cells are cultured at 27° C. or 37° C. with and without compounds for 16-24 hours.

T1 sequence (P13569 with tags, fused parts or gaps DEL508-508): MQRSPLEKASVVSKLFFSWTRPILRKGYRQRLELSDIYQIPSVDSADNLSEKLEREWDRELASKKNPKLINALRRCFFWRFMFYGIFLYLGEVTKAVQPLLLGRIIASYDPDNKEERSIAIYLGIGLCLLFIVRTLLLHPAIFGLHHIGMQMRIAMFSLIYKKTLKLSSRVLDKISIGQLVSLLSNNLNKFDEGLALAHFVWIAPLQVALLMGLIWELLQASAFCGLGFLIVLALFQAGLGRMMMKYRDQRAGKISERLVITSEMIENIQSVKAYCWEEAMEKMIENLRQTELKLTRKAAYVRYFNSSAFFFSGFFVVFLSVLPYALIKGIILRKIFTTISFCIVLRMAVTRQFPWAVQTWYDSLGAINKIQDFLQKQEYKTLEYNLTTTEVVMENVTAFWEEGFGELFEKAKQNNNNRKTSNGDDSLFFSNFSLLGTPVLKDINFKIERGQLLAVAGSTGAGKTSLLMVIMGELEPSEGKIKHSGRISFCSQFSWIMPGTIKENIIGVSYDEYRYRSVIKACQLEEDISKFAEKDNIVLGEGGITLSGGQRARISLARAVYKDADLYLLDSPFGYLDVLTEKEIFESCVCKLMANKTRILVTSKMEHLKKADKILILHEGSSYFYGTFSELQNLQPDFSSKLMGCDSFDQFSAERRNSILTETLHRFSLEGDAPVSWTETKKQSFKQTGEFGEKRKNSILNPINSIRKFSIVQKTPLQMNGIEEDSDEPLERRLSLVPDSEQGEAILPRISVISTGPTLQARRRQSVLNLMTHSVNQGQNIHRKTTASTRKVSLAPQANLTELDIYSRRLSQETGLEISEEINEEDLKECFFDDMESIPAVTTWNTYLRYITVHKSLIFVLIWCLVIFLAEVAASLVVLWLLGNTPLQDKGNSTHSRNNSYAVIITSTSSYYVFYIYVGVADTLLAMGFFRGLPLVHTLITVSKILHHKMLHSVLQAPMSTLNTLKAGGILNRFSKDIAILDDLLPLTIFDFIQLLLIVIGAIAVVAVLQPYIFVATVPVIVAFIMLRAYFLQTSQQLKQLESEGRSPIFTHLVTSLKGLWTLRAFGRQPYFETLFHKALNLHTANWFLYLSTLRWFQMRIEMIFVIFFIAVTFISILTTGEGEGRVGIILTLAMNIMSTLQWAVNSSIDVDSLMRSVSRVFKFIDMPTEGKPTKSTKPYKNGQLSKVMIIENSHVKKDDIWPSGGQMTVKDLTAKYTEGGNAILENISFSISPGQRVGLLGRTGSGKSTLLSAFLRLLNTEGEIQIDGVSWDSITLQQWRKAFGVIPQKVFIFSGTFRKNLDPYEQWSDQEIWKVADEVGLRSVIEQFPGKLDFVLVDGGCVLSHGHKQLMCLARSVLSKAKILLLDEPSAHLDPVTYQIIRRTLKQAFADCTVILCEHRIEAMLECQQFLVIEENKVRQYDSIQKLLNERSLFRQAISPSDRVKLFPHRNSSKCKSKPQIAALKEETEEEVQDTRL

| SMILES | Emax |
| --- | --- |
| COc1ccccc1Cc1cnc(NC(=O)C2(c3ccc4c(c3)OCO4)CC2)cn1 [Compound 34] | 25 to 100% |
| COc1ccccc1-c1ccc(NC(=O)C2(c3ccc4c(c3)OCO4)CC2)cn1 [Compound 24, 1-(benzo[d][1,3]dioxol-5-yl)-N-(6-(2-methoxyphenyl)pyridin-3-yl)cyclopropanecarboxamide] | > 100% |
| Cc1cc(O)nc(NC(=O)C2(c3ccc4c(c3)OCO4)CC2)n1 [Compound 35, 1-(benzo[d][1,3]dioxol-5-yl)-N-(4-hydroxy-6-methylpyrimidin-2-yl)cyclopropanecarboxamide] | 25 to 100% |
| COc1cc(NC(=O)C2(c3ccc4c(c3)OCO4)CC2)nc(OC)n1 [Compound 22, 1-(benzo[d][1,3]dioxol-5-yl)-N-(2,6-dimethoxypyrimidin-4-yl)cyclopropanecarboxamide] | > 100% |
| CC(C)c1ccc(NC(=O)C2(c3ccc4c(c3)OCO4)CC2)cn1 [Compound 31, 1-(Benzo[d][1,3]dioxol-5-yl)-N-(6-isopropylpyridin-3-yl)cyclopropanecarboxamide] | 25 to 100% |
| CC(Oc1ccc(Cl)cc1)c1ccnc(NC(=O)C2(c3ccc4c(c3)OCO4)CC2)n1 (stereo not shown) [Compound 14, 1-(benzo[d][1,3]dioxol-5-yl)-N-(4-(1-(4-chlorophenoxy)ethyl)pyrimidin-2-yl)cyclopropanecarboxamide] | > 100% |
| Cc1ncc(NC(=O)C2(c3ccc4c(c3)OCO4)CC2)cc1-c1cccc(C(=O)O)c1 [Compound 38, 3-(5-(1-(benzo[d][1,3]dioxol-5-yl)cyclopropanecarboxamido)-2-methylpyridin-3-yl)benzoic acid] | 25 to 100% |
| COc1ccccc1Cc1ccc(NC(=O)C2(c3ccc4c(c3)OCO4)CC2)cn1 [Compound 3] | > 100% |
| Cc1ncc(NC(=O)C2(c3ccc4c(c3)OCO4)CC2)cc1-c1ccc(C(N)=O)cc1 [Compound 39] | 25 to 100% |
| COc1ccccc1Nc1ccc(NC(=O)C2(c3ccc4c(c3)OCO4)CC2)cn1 [Compound 43, 1-(benzo[d][1,3]dioxol-5-yl)-N-(6-(2-methoxyphenylamino)pyridin-3-yl)cyclopropanecarboxamide] | > 100% |
| N#Cc1ccc(NC(=O)C2(c3ccc4c(c3)OCO4)CC2)cn1 [Compound 15, 1-(benzo[d][1,3]dioxol-5-yl)-N-(6-cyanopyridin-3-yl)cyclopropanecarboxamide] | 25 to 100% |
| O=C(Nc1cncc(Cc2ccccc2)n1)C1(c2ccc3c(c2)OCO3)CC1 [Compound 27, 1-(benzo[d][1,3]dioxol-5-yl)-N-(6-benzylpyrazin-2-yl)cyclopropanecarboxamide] | > 100% |
| Cc1ccc(S(=O)(=O)c2ncccc2NC(=O)C2(c3ccc4c(c3)OCO4)CC2)cc1 [Compound 18, 1-(benzo[d][1,3]dioxol-5-yl)-N-(2-tosylpyridin-3-yl)cyclopropanecarboxamide] | > 100% |
| Cc1ccnc(NC(=O)C2(c3ccc4c(c3)OCO4)CC2)n1 [Compound 25, 1-(benzo[d][1,3]dioxol-5-yl)-N-(4-methylpyrimidin-2-yl)cyclopropanecarboxamide] | 25 to 100% |
| Cc1ncc(NC(=O)C2(c3ccc4c(c3)OCO4)CC2)cc1-c1ccccc1 [Compound 42, 1-(benzo[d][1,3]dioxol-5-yl)-N-(6-methyl-5-phenylpyridin-3-yl)cyclopropanecarboxamide] | > 100% |
| COc1ccccc1Cc1ccc(NC(=O)C2(c3ccc4c(c3)OCO4)CC2)nn1 [Compound 4] | > 100% |
| Cc1cnc(NC(=O)C2(c3ccc4c(c3)OC(F)(F)O4)CC2)nc1-c1ccc(=O)[nH]c1 [Compound 28, 1-(2,2-difluorobenzo[d][1,3]dioxol-5-yl)-N-(5-methyl-4-(6-oxo-1,6-dihydropyridin-3-yl)pyrimidin-2-yl)cyclopropanecarboxamide] | 25 to 100% |

| SMILES | Emax |
| --- | --- |
| Cc1ncc(NC(=O)C2(c3ccc4c(c3)OCO4)CC2)cc1-c1cccc(S(N)(=O)=O)c1 [Compound 20, 1-(benzo[d][1,3]dioxol-5-yl)-N-(6-methyl-5-(3-sulfamoylphenyl)pyridin-3-yl)cyclopropanecarboxamide] | 25 to 100% |
| COc1ccccc1Cc1cc(NC(=O)C2(c3ccc4c(c3)OCO4)CC2)ccn1 [Compound 47] | > 100% |
| O=C(Nc1ncc2c(n1)-c1ccoc1CC2)C1(c2ccc3c(c2)OCO3)CC1 [Compound 23, 1-(benzo[d][1,3]dioxol-5-yl)-N-(5,6-dihydrofuro[2,3-h]quinazolin-2-yl)cyclopropanecarboxamide] | 25 to 100% |
| O=C(Nc1ccc(CC2CCCCC2)nn1)C1(c2ccc3c(c2)OCO3)CC1 [Compound 5, 1-(benzo[d][1,3]dioxol-5-yl)-N-(6-(cyclohexylmethyl)pyridazin-3-yl)cyclopropanecarboxamide] | 25 to 100% |
| Cc1cnc(NC(=O)C2(c3ccc4c(c3)OC(F)(F)O4)CC2)nc1-c1ccc(C(=O)O)cc1 [Compound 11, 4-(2-(1-(2,2-difluorobenzo[d][1,3]dioxol-5-yl)cyclopropanecarboxamido)-5-methylpyrimidin-4-yl)benzoic acid] | 25 to 100% |
| O=C(N(c1ccnc(C(F)(F)F)c1)c1ccccn1)C1(c2ccc3c(c2)OCO3)CC1 [Compound 41, 1-(benzo[d][1,3]dioxol-5-yl)-N-(pyridin-2-yl)-N-(2-(trifluoromethyl)pyridin-4-yl)cyclopropanecarboxamide] | 25 to 100% |
| Cc1ncc(NC(=O)C2(c3ccc4c(c3)OCO4)CC2)cc1-c1cccc(S(=O)(=O)N(C)C)c1 [Compound 6] | 25 to 100% |
| COc1ccccc1Cc1cncc(NC(=O)C2(c3ccc4c(c3)OCO4)CC2)n1 [Compound 33] | > 100% |
| O=C(Nc1cncc(Cc2ccccc2Cl)n1)C1(c2ccc3c(c2)OCO3)CC1 [Compound 13] | > 100% |
| O=C(Nc1ccc(Cc2ccccc2)nc1)C1(c2ccc3c(c2)OCO3)CC1 [Compound 19, 1-(benzo[d][1,3]dioxol-5-yl)-N-(6-benzylpyridin-3-yl)cyclopropanecarboxamide] | > 100% |
| CNC(=O)c1ccc(-c2cc(NC(=O)C3(c4ccc5c(c4)OCO5)CC3)cnc2C)cc1 [Compound 16, 4-(5-(1-(benzo[d][1,3]dioxol-5-yl)cyclopropanecarboxamido)-2-methylpyridin-3-yl)-N-methylbenzamide] | 25 to 100% |
| Cc1ncc(NC(=O)C2(c3ccc4c(c3)OCO4)CC2)cc1-c1cccc(C(N)=O)c1 [Compound 17] | 25 to 100% |
| Cc1ncc(NC(=O)C2(c3ccc4c(c3)OCO4)CC2)cc1-c1cccc(CO)c1 [Compound 40] | > 100% |
| Cc1cccc(Oc2ccc(NC(=O)C3(c4ccc5c(c4)OCO5)CC3)cn2)c1C [Compound 26, 1-(benzo[d][1,3]dioxol-5-yl)-N-(6-(2,3-dimethylphenoxy)pyridin-3-yl)cyclopropanecarboxamide] | 25 to 100% |
| Cc1c(NC(=O)C2(c3ccc4c(c3)OC(F)(F)O4)CC2)ccnc1-c1cccc(C(=O)O)c1 [Compound 9] | 25 to 100% |
| O=C(Nc1ccc(-c2ccccc2)nc1)C1(c2ccc3c(c2)OCO3)CC1 [Compound 32, 1-(benzo[d][1,3]dioxol-5-yl)-N-(6-phenylpyridin-3-yl)cyclopropanecarboxamide] | > 100% |
| O=C(Nc1cnc(Cc2ccccc2Cl)cn1)C1(c2ccc3c(c2)OCO3)CC1 [Compound 1, 1-(benzo[d][1,3]dioxol-5-yl)-N-(5-(2-chlorobenzyl)pyrazin-2-yl)cyclopropanecarboxamide] | > 100% |
